Assay results as given in patent US20210227868A1, “Formula with specific beta-lactoglobulin peptides” (N.V. Nutricia, priority 2018, published 2021).

What was measured:
Experiment in all cases: T-cell proliferation assay (stimulation index)
Assay type in all cases: cell-based, human
TCL A = conditions: SI>=2 positive
Procedure: (§1) Synthetic peptides were obtained from JPT technologies. Only peptides containing at least 9 AAs were taken into account, as this is the minimal size for binding to MHC class II molecules and subsequent T-cell recognition (Holland et al, Front Immunol 2013 Jul 1; 4:172.) Synthetic peptides (JPT technologies) identical to the peptides identified in all batches of the HP of example 1 were dissolved in dimethylsulfoxide (Sigma Aldrich) at a concentration of 5.3 mM. The peptides were tested on cow's milk-specific T-cell lines (TCLs) from three different donors. The peptides were tested on cow's milk protein-specific T-cell lines (TCLs) from three infant donors, diagnosed with cow's milk protein allergy. […] Proliferation was determined as described previously (Ruiter et al, Clin Exp Allergy 2006, 36(3):303-310). Stimulation indexes (Sls, ratio between proliferation of allergen/peptide-stimulated and non-stimulated T cells) were calculated and a SI≥2 was considered positive.
(§2) To confirm that the peptides identified in HP were recognized by T cells, synthetic peptides identical to these identified peptides were tested on cow's milk-specific human TCLs. As there was a considered overlap between the identified peptides, five peptides were tested (Table 7) that were identified in all batches and differed with more than 9A from each other. All tested peptides were able to induce proliferation (FIG. 2). […] This was also seen with the in silico prediction data (data not shown). […] As peptide LIV . . . […] SLL (AA #1-32) did, the region containing AA #28-32 (DISLL) was essential for the response of TCL A. Unexpectedly, TCL C recognized peptide LIV . . . AAS (AA #1-27), while the longer peptide containing the same sequence with 5 additional AAs, LIV . . .

TCL C = conditions: SI>=2 positive
Procedure: as §1, §2

[1] = system: cow's milk-specific T-cell lines (TCLs); conditions: TCLs of three cow's milk allergic donors; SI>=2 positive
Procedure: as §1, §2

LIVTQTMKGLDIQKVAGTWYSLAMAASDISLL (beta-lactoglobulin peptide fragment) [SEQ ID NO: 11]
T-cell proliferation (TCL A): did | T-cell proliferation (TCL C): not able to induce a proliferative response

LIVTQTMKGLDIQKVAGTWYSLAMAAS (beta-lactoglobulin peptide fragment) [SEQ ID NO: 9]
T-cell proliferation (TCL A): not able to induce proliferation | T-cell proliferation (TCL C): recognized

TMKGLDIQKVAGTWYSLAMAASDISLLDAQ (beta-lactoglobulin peptide fragment) [SEQ ID NO: 4]
T-cell proliferation / reactivity [1]: reactivity of every cell line was covered
